Data published in patent US10670605B2, “Cysteine reactive probes and uses thereof” (The Scripps Research Institute, priority 2015, dated 2020).

Assays:
Assay in all cases: Competitive isoTOP-ABPP, cell lysates
Assay type in all cases: binding
[1] = target: T1, DDX59 C453 (Q5T1V6) (Homo sapiens, UniProt Q5T1V6); conditions: for R value (DMSO/fragment): 500 μM; for isoTOP-ABPP ratio (reactivity profile), Q5T1V6_C453: 500 μm in-vitro ramos_231
T1 sequence (Q5T1V6 1-619): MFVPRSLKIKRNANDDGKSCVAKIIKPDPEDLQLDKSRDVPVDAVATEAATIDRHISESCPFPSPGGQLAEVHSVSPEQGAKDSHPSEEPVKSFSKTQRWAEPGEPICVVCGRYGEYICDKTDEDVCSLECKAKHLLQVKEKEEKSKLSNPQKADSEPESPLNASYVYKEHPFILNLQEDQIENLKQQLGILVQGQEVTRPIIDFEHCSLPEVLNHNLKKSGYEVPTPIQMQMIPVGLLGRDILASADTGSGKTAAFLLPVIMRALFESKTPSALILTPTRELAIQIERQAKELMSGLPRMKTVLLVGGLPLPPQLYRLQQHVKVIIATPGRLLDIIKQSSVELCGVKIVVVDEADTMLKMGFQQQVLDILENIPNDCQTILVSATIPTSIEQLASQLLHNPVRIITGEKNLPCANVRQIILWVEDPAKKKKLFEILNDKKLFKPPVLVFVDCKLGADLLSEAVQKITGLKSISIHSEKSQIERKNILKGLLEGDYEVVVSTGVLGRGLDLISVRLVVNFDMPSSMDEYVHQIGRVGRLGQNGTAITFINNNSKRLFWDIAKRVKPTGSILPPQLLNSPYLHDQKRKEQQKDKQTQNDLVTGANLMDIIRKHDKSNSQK

[2] = target: T2, POU2F2 C346 (P09086) (Homo sapiens, UniProt P09086)
T2 sequence (P09086 1-479): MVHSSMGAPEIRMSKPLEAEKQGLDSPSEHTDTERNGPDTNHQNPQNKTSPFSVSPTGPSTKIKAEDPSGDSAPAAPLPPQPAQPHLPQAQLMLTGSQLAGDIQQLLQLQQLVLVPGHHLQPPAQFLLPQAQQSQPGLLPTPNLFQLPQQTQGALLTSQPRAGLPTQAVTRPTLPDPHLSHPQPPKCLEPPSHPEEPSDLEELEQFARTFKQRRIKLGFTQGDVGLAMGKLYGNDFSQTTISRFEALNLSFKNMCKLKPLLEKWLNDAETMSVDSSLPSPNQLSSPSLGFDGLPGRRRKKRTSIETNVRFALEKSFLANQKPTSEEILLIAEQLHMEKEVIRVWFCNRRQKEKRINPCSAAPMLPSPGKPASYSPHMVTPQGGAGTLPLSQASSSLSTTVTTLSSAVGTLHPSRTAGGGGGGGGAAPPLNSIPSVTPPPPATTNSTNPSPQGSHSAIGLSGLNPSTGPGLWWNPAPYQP

[3] = target: IRAK1 C608 (P51617) (Homo sapiens, UniProt P51617)
[4] = target: USP34 C741 (Q70CQ2) (Homo sapiens, UniProt Q70CQ2); conditions: for isoTOP-ABPP reactivity ratio, Q70CQ2_C741: 500 μm
[5] = target: T3, CASP2 C370 (P42575) (Homo sapiens, UniProt P42575); conditions: for isoTOP-ABPP reactivity ratio, P42575_C370: 500 μm, in-vitro_ramos
T3 sequence (P42575 1-452): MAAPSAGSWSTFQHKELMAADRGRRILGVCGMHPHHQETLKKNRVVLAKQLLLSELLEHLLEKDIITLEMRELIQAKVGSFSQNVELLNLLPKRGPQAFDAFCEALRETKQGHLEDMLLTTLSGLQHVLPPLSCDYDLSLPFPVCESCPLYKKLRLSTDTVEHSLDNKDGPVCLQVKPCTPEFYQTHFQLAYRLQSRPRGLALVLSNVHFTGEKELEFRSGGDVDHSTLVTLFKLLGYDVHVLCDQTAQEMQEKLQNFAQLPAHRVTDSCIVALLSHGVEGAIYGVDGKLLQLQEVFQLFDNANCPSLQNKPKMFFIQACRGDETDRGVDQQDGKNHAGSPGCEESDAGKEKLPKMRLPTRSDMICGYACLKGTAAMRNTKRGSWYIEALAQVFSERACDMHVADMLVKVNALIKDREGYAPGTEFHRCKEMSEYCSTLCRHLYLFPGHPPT

[6] = target: EP300 C1738 (Q09472) (Homo sapiens, UniProt Q09472); conditions: for isoTOP-ABPP ratio (reactivity profile), Q09472_C1738: 500 μm in-vitro ramos_231
Chain of EP300 C1738 (Q09472) (Q09472 whole entry): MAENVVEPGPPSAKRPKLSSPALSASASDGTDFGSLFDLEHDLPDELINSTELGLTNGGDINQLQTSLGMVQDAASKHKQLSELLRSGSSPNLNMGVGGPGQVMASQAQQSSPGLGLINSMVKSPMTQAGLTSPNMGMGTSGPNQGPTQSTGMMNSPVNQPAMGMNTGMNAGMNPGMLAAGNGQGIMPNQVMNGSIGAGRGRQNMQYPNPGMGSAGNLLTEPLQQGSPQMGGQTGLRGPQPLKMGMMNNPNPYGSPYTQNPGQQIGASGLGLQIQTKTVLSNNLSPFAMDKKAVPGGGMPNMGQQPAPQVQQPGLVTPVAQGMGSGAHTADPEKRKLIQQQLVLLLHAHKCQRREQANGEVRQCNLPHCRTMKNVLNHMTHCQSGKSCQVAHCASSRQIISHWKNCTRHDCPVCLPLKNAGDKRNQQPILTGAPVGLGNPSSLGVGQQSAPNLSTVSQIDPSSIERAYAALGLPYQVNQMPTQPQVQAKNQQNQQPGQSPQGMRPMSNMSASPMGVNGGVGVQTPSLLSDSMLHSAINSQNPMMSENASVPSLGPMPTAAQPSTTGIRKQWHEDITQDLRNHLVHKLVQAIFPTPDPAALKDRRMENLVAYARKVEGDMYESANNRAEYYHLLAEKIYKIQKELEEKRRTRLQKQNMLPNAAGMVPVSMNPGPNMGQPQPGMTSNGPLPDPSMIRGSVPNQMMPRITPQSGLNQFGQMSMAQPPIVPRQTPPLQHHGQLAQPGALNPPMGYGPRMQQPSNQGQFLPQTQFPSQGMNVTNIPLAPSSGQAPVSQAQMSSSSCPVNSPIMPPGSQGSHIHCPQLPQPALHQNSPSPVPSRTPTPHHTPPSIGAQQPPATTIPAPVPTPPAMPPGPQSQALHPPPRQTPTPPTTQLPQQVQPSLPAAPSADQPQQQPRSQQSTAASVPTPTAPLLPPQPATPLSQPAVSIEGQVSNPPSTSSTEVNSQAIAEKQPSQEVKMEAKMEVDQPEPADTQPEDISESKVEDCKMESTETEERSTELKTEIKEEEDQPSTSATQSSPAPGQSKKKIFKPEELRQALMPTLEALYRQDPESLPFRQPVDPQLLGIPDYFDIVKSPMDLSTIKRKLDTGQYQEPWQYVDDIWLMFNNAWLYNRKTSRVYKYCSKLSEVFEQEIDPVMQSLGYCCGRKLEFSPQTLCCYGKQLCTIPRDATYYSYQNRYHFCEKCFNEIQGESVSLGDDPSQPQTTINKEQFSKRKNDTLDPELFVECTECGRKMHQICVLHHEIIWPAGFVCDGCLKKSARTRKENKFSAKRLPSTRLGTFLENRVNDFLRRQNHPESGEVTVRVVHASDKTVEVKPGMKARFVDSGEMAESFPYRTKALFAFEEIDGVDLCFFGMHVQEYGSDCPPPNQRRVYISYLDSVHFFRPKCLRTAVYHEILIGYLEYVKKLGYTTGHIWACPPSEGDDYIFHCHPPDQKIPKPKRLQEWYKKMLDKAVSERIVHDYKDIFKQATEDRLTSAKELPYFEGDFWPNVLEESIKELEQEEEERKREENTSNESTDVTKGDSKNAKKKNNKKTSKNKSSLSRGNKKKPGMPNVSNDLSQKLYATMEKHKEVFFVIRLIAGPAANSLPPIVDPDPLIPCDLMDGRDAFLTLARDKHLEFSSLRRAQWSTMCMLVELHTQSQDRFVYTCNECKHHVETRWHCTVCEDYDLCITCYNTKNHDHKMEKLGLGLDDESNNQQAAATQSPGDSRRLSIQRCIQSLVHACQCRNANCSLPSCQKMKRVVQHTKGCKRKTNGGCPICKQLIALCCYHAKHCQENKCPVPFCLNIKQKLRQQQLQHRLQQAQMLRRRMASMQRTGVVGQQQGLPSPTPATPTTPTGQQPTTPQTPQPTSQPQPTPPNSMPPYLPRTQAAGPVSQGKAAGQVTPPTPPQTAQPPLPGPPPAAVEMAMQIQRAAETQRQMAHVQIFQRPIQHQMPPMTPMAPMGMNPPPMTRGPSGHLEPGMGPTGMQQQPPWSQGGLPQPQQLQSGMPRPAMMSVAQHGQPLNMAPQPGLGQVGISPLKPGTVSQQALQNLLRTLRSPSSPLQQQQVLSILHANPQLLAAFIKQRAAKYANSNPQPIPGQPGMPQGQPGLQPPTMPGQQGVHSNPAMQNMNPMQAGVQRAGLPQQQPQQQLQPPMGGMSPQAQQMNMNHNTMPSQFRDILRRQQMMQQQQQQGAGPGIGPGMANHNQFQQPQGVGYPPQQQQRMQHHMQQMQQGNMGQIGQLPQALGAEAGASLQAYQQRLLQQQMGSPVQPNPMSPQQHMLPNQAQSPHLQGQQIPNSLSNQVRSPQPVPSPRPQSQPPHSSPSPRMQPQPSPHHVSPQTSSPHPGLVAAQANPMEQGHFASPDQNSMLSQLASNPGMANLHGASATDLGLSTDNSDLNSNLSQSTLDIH

Chain of IRAK1 C608 (P51617) (P51617 whole entry): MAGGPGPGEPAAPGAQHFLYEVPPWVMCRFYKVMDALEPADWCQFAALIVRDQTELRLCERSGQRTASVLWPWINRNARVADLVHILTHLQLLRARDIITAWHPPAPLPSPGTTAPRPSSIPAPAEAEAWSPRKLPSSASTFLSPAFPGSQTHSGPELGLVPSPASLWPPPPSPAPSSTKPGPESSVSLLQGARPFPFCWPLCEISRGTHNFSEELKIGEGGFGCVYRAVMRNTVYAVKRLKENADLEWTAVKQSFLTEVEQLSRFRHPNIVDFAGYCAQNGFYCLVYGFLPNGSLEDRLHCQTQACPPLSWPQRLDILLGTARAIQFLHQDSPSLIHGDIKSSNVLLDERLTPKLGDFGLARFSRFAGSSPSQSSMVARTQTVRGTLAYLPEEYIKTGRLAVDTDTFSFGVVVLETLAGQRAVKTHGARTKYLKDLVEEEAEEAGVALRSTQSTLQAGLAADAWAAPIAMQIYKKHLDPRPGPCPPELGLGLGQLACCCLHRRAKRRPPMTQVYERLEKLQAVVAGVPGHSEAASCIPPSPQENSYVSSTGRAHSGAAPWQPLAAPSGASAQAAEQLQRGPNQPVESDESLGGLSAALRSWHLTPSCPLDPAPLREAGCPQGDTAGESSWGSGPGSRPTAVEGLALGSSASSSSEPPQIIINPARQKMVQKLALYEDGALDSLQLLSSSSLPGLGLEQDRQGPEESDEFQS

O=C(CCl)Nc1cc(C(F)(F)F)cc(C(F)(F)F)c1 [compound 3]
R value (DMSO/fragment) ([1]; in vitro, MDA-MB-231): 20.0 | R value (DMSO/fragment) ([2]; 500 μM, in vitro, MDA-MB-231): 1.7 | R value (DMSO/fragment) ([2]; 500 μM, invitro, ramos): 5.5 | R value (DMSO/fragment) ([3]; 500 μM, invitro, ramos): 20.0 | R value (DMSO/fragment) ([4]; 500 μM, invitro, ramos): 3.2 | R value (DMSO/fragment) ([5]; 500 μM, invitro, ramos): 7.4

C=CC(=O)N(c1ccccc1)c1ccc(Br)cc1 [compound 5]
isoTOP-ABPP ratio, P09086_C346 ([2]; 500 μM, invitro, ramos): 4.6 | isoTOP-ABPP ratio, P51617_C608 ([3]; 500 μM, invitro, ramos): 10.1 | isoTOP-ABPP ratio, Q09472_C1738 ([6]; 500 μM, invitro, ramos): 20.0

C=CC(=O)N(Cc1cccnc1)c1ccc(Oc2ccccc2)c(C(F)(F)F)c1 [compound 15]
isoTOP-ABPP ratio (reactivity profile), P09086_C346 ([2]; 500 μm in-vitro ramos): 0.8

COc1ccc2c(c1)CCCN2C(=O)CCl [compound 2]
R value (DMSO/fragment) ([1]; in vitro, MDA-MB-231): 20.0 | R value (DMSO/fragment) ([1]; invitro, ramos): 20.0 | R value (DMSO/fragment) ([3]; 500 μM, invitro, ramos): 2.5 | R value (DMSO/fragment) ([6]; 500 μM, invitro, ramos): 12.7

CCN(CC)c1ccc(S(N)(=O)=O)cc1NC(=O)CCl [compound 30]
isoTOP-ABPP reactivity ratio, P42575_C370 [5]: 4.1

C=CC(=O)N1CCC(c2noc3ccc(F)cc23)CC1 [compound 37]
isoTOP-ABPP reactivity ratio, Q70CQ2_C741 ([4]; in-vitro_ramos): 1.1 | isoTOP-ABPP reactivity ratio, P42575_C370 [5]: 0.7

CC(Cl)C(=O)Nc1cc(C(F)(F)F)cc(C(F)(F)F)c1 (centres unmarked) [compound 25]
isoTOP-ABPP ratio (reactivity profile), Q5T1V6_C453 [1]: 0.9 | isoTOP-ABPP ratio (reactivity profile), P09086_C346 ([2]; 500 μm in-vitro ramos_231): 0.7 | isoTOP-ABPP ratio (reactivity profile), Q09472_C1738 [6]: 1.6

N#C/C(=C\c1cc(C(F)(F)F)cc(C(F)(F)F)c1)C(N)=O [compound 23]
isoTOP-ABPP ratio (reactivity profile), P09086_C346 ([2]; 500 μm in-vitro ramos): 1.1 | isoTOP-ABPP ratio (reactivity profile), P51617_C608 ([3]; 500 μm in-vitro ramos): 1.5 | isoTOP-ABPP ratio (reactivity profile), P42575_C370 ([5]; 500 μm in-vitro ramos): 2.1

CC(C)CCOCCNC(=O)CCl [compound 27]
isoTOP-ABPP ratio (reactivity profile), Q5T1V6_C453 [1]: 1.0 | isoTOP-ABPP ratio (reactivity profile), P42575_C370 ([5]; 500 μm in-vitro ramos_231): 0.9 | isoTOP-ABPP ratio (reactivity profile), Q09472_C1738 [6]: 1.0

C=CC(=O)Nc1cc(C)c(Br)cc1C [compound 40]
isoTOP-ABPP reactivity ratio, P42575_C370 [5]: 2.7

O=C(CCl)N1CCN(S(=O)(=O)c2ccccc2F)CC1 [compound 10]
isoTOP-ABPP ratio, Q70CQ2_C741 ([4]; 500 μM, invitro, ramos): 0.9 | isoTOP-ABPP ratio, P42575_C370 ([5]; 500 μM, invitro, ramos): 1.2

O=C(CCl)N1CCN(CC(=O)N2CCOCC2)CC1 [compound 29]
isoTOP-ABPP ratio (reactivity profile), Q09472_C1738 [6]: 1.3

C=CC(=O)N(Cc1cccnc1)c1cc(C(F)(F)F)cc(C(F)(F)F)c1 [compound 31]
isoTOP-ABPP reactivity ratio, P09086_C346 ([2]; 500 μm, in-vitro_ramos): 0.6 | isoTOP-ABPP reactivity ratio, Q70CQ2_C741 ([4]; in-vitro_ramos_231): 4.2
